According to PubChem BioAssay AID1963442 (Molecular Pharmacology Branch, DTP, NCI, 2024):

System: MPNST complex spheroid with HUVEC/MSC, growth, % test/control
Assay: Anticancer human tumor MPNST cell line growth inhibition [Asc];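 note: compounds left on spheroids for seven days before reading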
Conditions: for IC50: curve of first compound; for viability, T/C: stronger effect = lower value
How it was run: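 Complex solid-tumor spheroids incorporating human endothelial and mesenchymal stem cells received single agents or combinations over half-log dilution ranges anchored to clinical Cmax.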

[1] = second compound 0.1 µM, first compound 0.0316 µM
[2] = second compound 0.1 µM, first compound 0.1 µM
[3] = second compound 0.1 µM, first compound 0.316 µM
[4] = second compound 0.1 µM, first compound 1 µM
[5] = second compound 0.316 µM, first compound 0.0316 µM
[6] = second compound 0.316 µM, first compound 0.1 µM
[7] = second compound 0.316 µM, first compound 0.316 µM
[8] = second compound 0.316 µM, first compound 1 µM
[9] = second compound 1 µM, first compound 0.0316 µM
[10] = second compound 1 µM, first compound 0.1 µM
[11] = second compound 1 µM, first compound 0.316 µM
[12] = second compound 1 µM, first compound 1 µM
[13] = second compound 3.16 µM, first compound 0.0316 µM
[14] = second compound 3.16 µM, first compound 0.1 µM
[15] = second compound 3.16 µM, first compound 0.316 µM
[16] = second compound 3.16 µM, first compound 1 µM
[17] = second compound 10 µM, first compound 0.0316 µM
[18] = second compound 10 µM, first compound 0.1 µM
[19] = second compound 10 µM, first compound 0.316 µM
[20] = second compound 10 µM, first compound 1 µM
[21] = second compound 0.1 µM, first compound 0.00316 µM
[22] = second compound 0.1 µM, first compound 0.01 µM
[23] = second compound 0.316 µM, first compound 0.00316 µM
[24] = second compound 0.316 µM, first compound 0.01 µM
[25] = second compound 1 µM, first compound 0.00316 µM
[26] = second compound 1 µM, first compound 0.01 µM
[27] = second compound 3.16 µM, first compound 0.00316 µM
[28] = second compound 3.16 µM, first compound 0.01 µM
[29] = second compound 10 µM, first compound 0.00316 µM
[30] = second compound 10 µM, first compound 0.01 µM

C=CC(=O)N1CCN(c2nc(=O)n(-c3c(C)ccnc3C(C)C)c3nc(-c4c(O)cccc4F)c(F)cc23)C(C)C1 (stereo not given) + Cc1c(S(C)(=O)=O)c(-c2cc(F)cc(N3CCN(c4ccc(NS(=O)(=O)c5ccc(NC(CCN6CCC(C(=O)OCCCP(=O)(O)O)CC6)CSc6ccccc6)c(S(=O)(=O)C(F)(F)F)c5)cc4)CC3)c2)c(-c2ccc(Cl)cc2)n1C(C)C
IC50 (second compound 0.1 µM): > 10000 nM | IC50 (second compound 0.316 µM): > 10000 nM | IC50 (second compound 1 µM): > 10000 nM | IC50 (second compound 3.16 µM): > 10000 nM | IC50 (second compound 10 µM): > 10000 nM | viability, T/C [1]: 71.9% | viability, T/C [2]: 74.7% | viability, T/C [3]: 84.2% | viability, T/C [4]: 96.2% | viability, T/C (second compound 0.1 µM, first compound 3.16 µM): 93.4% | viability, T/C (second compound 0.1 µM, first compound 10 µM): 105% | viability, T/C [5]: 79.4% | viability, T/C [6]: 93.8% | viability, T/C [7]: 76.7% | viability, T/C [8]: 88.9% | viability, T/C (second compound 0.316 µM, first compound 3.16 µM): 85.7% | viability, T/C (second compound 0.316 µM, first compound 10 µM): 108% | viability, T/C [9]: 90.8% | viability, T/C [10]: 85.1% | viability, T/C [11]: 89.8% | viability, T/C [12]: 89.9% | viability, T/C (second compound 1 µM, first compound 3.16 µM): 101% | viability, T/C (second compound 1 µM, first compound 10 µM): 118% | viability, T/C [13]: 66.5% | viability, T/C [14]: 88% | viability, T/C [15]: 84.6% | viability, T/C [16]: 99% | viability, T/C (second compound 3.16 µM, first compound 3.16 µM): 100% | viability, T/C (second compound 3.16 µM, first compound 10 µM): 99% | viability, T/C [17]: 83.5% | viability, T/C [18]: 91.2% | viability, T/C [19]: 83.8% | viability, T/C [20]: 97.1% | viability, T/C (second compound 10 µM, first compound 3.16 µM): 115% | viability, T/C (second compound 10 µM, first compound 10 µM): 115%

COc1c(OCCCN2CCOCC2)ccc2c3n(c(=NC(=O)c4cnc(N)nc4)nc12)CCN3 + Cc1c(S(C)(=O)=O)c(-c2cc(F)cc(N3CCN(c4ccc(NS(=O)(=O)c5ccc(NC(CCN6CCC(C(=O)OCCCP(=O)(O)O)CC6)CSc6ccccc6)c(S(=O)(=O)C(F)(F)F)c5)cc4)CC3)c2)c(-c2ccc(Cl)cc2)n1C(C)C
IC50 (second compound 0.1 µM): 68.1 nM | IC50 (second compound 0.316 µM): 50.3 nM | IC50 (second compound 1 µM): 62.8 nM | IC50 (second compound 3.16 µM): 31.7 nM | IC50 (second compound 10 µM): 29.3 nM | viability, T/C [21]: 60.5% | viability, T/C [22]: 71.7% | viability, T/C [1]: 62.3% | viability, T/C [2]: 41.8% | viability, T/C [3]: 30.4% | viability, T/C [4]: 18.6% | viability, T/C [23]: 72.6% | viability, T/C [24]: 62.3% | viability, T/C [5]: 61.7% | viability, T/C [6]: 35% | viability, T/C [7]: 23.8% | viability, T/C [8]: 16.8% | viability, T/C [25]: 75.9% | viability, T/C [26]: 77.1% | viability, T/C [9]: 62.4% | viability, T/C [10]: 40.1% | viability, T/C [11]: 25.2% | viability, T/C [12]: 14.4% | viability, T/C [27]: 79.3% | viability, T/C [28]: 69.5% | viability, T/C [13]: 49.7% | viability, T/C [14]: 31.1% | viability, T/C [15]: 18.9% | viability, T/C [16]: 16.8% | viability, T/C [29]: 90.1% | viability, T/C [30]: 71.8% | viability, T/C [17]: 48.5% | viability, T/C [18]: 27.5% | viability, T/C [19]: 18.3% | viability, T/C [20]: 8.75%

NC(=O)C(=Cn1cnc(-c2cc(C(F)(F)F)cc(C(F)(F)F)c2)n1)c1cncnc1 + Cc1c(S(C)(=O)=O)c(-c2cc(F)cc(N3CCN(c4ccc(NS(=O)(=O)c5ccc(NC(CCN6CCC(C(=O)OCCCP(=O)(O)O)CC6)CSc6ccccc6)c(S(=O)(=O)C(F)(F)F)c5)cc4)CC3)c2)c(-c2ccc(Cl)cc2)n1C(C)C
IC50 (second compound 0.1 µM): > 300 nM | IC50 (second compound 0.316 µM): 172 nM | IC50 (second compound 1 µM): 72 nM | IC50 (second compound 3.16 µM): 37.4 nM | IC50 (second compound 10 µM): 75.6 nM | viability, T/C (second compound 0.1 µM, first compound 0.000949 µM): 56.9% | viability, T/C (second compound 0.1 µM, first compound 0.003 µM): 65.2% | viability, T/C (second compound 0.1 µM, first compound 0.00949 µM): 59% | viability, T/C (second compound 0.1 µM, first compound 0.03 µM): 80.2% | viability, T/C (second compound 0.1 µM, first compound 0.0949 µM): 66.9% | viability, T/C (second compound 0.1 µM, first compound 0.3 µM): 44.9% | viability, T/C (second compound 0.316 µM, first compound 0.000949 µM): 68.9% | viability, T/C (second compound 0.316 µM, first compound 0.003 µM): 80% | viability, T/C (second compound 0.316 µM, first compound 0.00949 µM): 74.3% | viability, T/C (second compound 0.316 µM, first compound 0.03 µM): 64.3% | viability, T/C (second compound 0.316 µM, first compound 0.0949 µM): 61.5% | viability, T/C (second compound 0.316 µM, first compound 0.3 µM): 40.6% | viability, T/C (second compound 1 µM, first compound 0.000949 µM): 78.6% | viability, T/C (second compound 1 µM, first compound 0.003 µM): 75.8% | viability, T/C (second compound 1 µM, first compound 0.00949 µM): 67.9% | viability, T/C (second compound 1 µM, first compound 0.03 µM): 54.4% | viability, T/C (second compound 1 µM, first compound 0.0949 µM): 50.6% | viability, T/C (second compound 1 µM, first compound 0.3 µM): 41.5% | viability, T/C (second compound 3.16 µM, first compound 0.000949 µM): 65.3% | viability, T/C (second compound 3.16 µM, first compound 0.003 µM): 78.5% | viability, T/C (second compound 3.16 µM, first compound 0.00949 µM): 70.1% | viability, T/C (second compound 3.16 µM, first compound 0.03 µM): 51.5% | viability, T/C (second compound 3.16 µM, first compound 0.0949 µM): 44.6% | viability, T/C (second compound 3.16 µM, first compound 0.3 µM): 39.3% | viability, T/C (second compound 10 µM, first compound 0.000949 µM): 73.3% | viability, T/C (second compound 10 µM, first compound 0.003 µM): 72.4% | viability, T/C (second compound 10 µM, first compound 0.00949 µM): 65.6% | viability, T/C (second compound 10 µM, first compound 0.03 µM): 58.4% | viability, T/C (second compound 10 µM, first compound 0.0949 µM): 48% | viability, T/C (second compound 10 µM, first compound 0.3 µM): 34.6%

NC1CCC(NC2CC2c2ccccc2)CC1 (stereo not given) + Cc1c(S(C)(=O)=O)c(-c2cc(F)cc(N3CCN(c4ccc(NS(=O)(=O)c5ccc(NC(CCN6CCC(C(=O)OCCCP(=O)(O)O)CC6)CSc6ccccc6)c(S(=O)(=O)C(F)(F)F)c5)cc4)CC3)c2)c(-c2ccc(Cl)cc2)n1C(C)C
IC50 (second compound 0.1 µM): > 100 nM | IC50 (second compound 0.316 µM): > 100 nM | IC50 (second compound 1 µM): > 100 nM | IC50 (second compound 3.16 µM): > 100 nM | IC50 (second compound 10 µM): > 100 nM | viability, T/C (second compound 0.1 µM, first compound 0.000316 µM): 67.4% | viability, T/C (second compound 0.1 µM, first compound 0.001 µM): 71.3% | viability, T/C [21]: 63.5% | viability, T/C [22]: 75% | viability, T/C [1]: 72.4% | viability, T/C [2]: 64.2% | viability, T/C (second compound 0.316 µM, first compound 0.000316 µM): 81.8% | viability, T/C (second compound 0.316 µM, first compound 0.001 µM): 67.6% | viability, T/C [23]: 87.1% | viability, T/C [24]: 64.5% | viability, T/C [5]: 66.4% | viability, T/C [6]: 61.8% | viability, T/C (second compound 1 µM, first compound 0.000316 µM): 73.8% | viability, T/C (second compound 1 µM, first compound 0.001 µM): 63.2% | viability, T/C [25]: 70.4% | viability, T/C [26]: 66.5% | viability, T/C [9]: 69.4% | viability, T/C [10]: 59.8% | viability, T/C (second compound 3.16 µM, first compound 0.000316 µM): 60.8% | viability, T/C (second compound 3.16 µM, first compound 0.001 µM): 81.5% | viability, T/C [27]: 64.9% | viability, T/C [28]: 65.8% | viability, T/C [13]: 65.4% | viability, T/C [14]: 54.1% | viability, T/C (second compound 10 µM, first compound 0.000316 µM): 79% | viability, T/C (second compound 10 µM, first compound 0.001 µM): 83.2% | viability, T/C [29]: 69.2% | viability, T/C [30]: 69.7% | viability, T/C [17]: 65.9% | viability, T/C [18]: 62%
